Measured values from patent US20220315554A1, “COMPOUNDS COMPRISING A […] LIGAND AND USE THEREOF” (priority 2019, published 2022).
pIC50: −log10 of the molar value. Numbered stars: 1 amine (or outer) side, 2 acyl side, 3 side chain; on linkers, the order of the positions; unused ones are H or OH. Bridge positions count the residues as written; N and C are the ends. Square brackets hold non-standard residues; d marks the D form. Peptide text beside a SMILES is read from it. * marks the point of attachment. X3 = NC(=O)[C@H](CCCCNC(=O)CN1CCN(CC(=O)O)CCN(CC(=O)O)CCN(CC(=O)O)CC1)NC(=O)CCC(=O)NCCCOCCOCCOCCCN*; X12 = NCCNCC(CNCCN)C(=O)NCCCOCCOCCOCCCN*; mXylylene = c1cc(C[*:1])cc(C[*:2])c1; 4Pal = N[C@@H](Cc1ccncc1)C(=O)O; Suc = O=C(CCC(=O)[*:2])[*:1]; Nle = CCCC[C@H](N)C(=O)O; Hexanoyl = CCCCCC(=O)*

Key:
[1] = target: T1, FAP-expressing human WI-38 fibroblasts (Homo sapiens, UniProt Q12884); test: Competitive FACS binding assay; conditions: pIC50 Category (FACS), competition with 3 nM Cy5-labeled compound, 4° C., 1 hour
T1 construct: FAP-expressing human WI-38 fibroblasts (ECACC) were cultured in EMEM; host or cells: WI-38 human fibroblasts
T1 sequence (Q12884 1-760): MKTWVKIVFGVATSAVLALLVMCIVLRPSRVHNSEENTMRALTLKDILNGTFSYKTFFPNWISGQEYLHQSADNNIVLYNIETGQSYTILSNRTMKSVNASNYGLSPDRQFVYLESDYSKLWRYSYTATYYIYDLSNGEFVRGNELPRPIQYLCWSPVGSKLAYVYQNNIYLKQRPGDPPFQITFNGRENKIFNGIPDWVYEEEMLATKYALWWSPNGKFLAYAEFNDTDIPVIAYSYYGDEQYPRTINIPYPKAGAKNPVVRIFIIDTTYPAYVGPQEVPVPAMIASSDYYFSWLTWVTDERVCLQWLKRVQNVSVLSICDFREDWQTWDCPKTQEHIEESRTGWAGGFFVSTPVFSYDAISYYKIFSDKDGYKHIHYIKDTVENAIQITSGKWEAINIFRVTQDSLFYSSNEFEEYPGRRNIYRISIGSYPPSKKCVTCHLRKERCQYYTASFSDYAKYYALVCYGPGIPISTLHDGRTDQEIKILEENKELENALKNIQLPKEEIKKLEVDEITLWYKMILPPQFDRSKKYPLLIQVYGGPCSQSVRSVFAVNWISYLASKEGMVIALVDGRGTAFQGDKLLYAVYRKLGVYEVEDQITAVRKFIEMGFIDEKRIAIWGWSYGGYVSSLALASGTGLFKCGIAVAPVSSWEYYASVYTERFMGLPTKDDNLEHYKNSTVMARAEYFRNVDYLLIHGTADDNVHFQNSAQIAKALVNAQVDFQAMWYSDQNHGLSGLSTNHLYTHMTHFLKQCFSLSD
Method: Cells were analyzed in an Attune NxT flow cytometer. […]

[2] = target: T2, Human recombinant FAP (Homo sapiens, UniProt Q12884); test: FRET-based FAP protease activity assay; type: biochemical; set-up: purchased R&D systems 3715-SE; conditions: pIC50 Category (Activity), FRET substrate, 37° C.
T2 sequence (Q12884 1-760): T1 sequence (Q12884 1-760)

| SMILES | pIC50 ([1]; WI-38 fibroblasts) | pIC50 ([2]; recombinant human FAP) | pIC50 [1] | pIC50 [2] |
| --- | --- | --- | --- | --- |
| CCCC[C@H](NC(=O)CCC(=O)NCCCOCCOCCOCCCNC(=O)C(CNCCN)CNCCN)C(=O)N[C@H]1CSCc2cccc(c2)CSC[C@@H](C(=O)O)NC(=O)[C@H](Cc2ccncc2)NC(=O)[C@H](CCC(=O)O)NC(=O)[C@H]([C@@H](C)O)NC(=O)[C@@H]2CCCN2C(=O)[C@@H]2CCCN2C1=O [3BP-4223, N4Ac-Ttds-Nle-[Cys-(3MeBn)-Pro-Pro-Thr-Glu-Ppa-Cys]-OH] ({X12-Suc}-[Nle]CPPTE[4Pal]C-OH; linker 2-8 via mXylylene) | – | – | 6.10 to 7.00 | 6.10 to 7.00 |
| CCCCCC(=O)N[C@H]1CSCc2cc(CSCCNC(=O)CN3CCN(CC(=O)O)CCN(CC(=O)O)CC3)cc(c2)CSC[C@@H](C(=O)O)NC(=O)[C@H](Cc2ccccc2)NC(=O)[C@H](CCC(N)=O)NC(=O)[C@H]([C@@H](C)O)NC(=O)[C@@H]2CCCN2C(=O)[C@@H]2CCCN2C1=O [3BP-4310, Hex-[Cys-(tMeBn(NOTA-AET))-Pro-Pro-Thr-Gln-Phe-Cys]-OH] | – | – | > 8.00 | > 8.00 |
| CCCCCC(=O)N[C@H]1CSCc2cc(CSCCNC(=O)CN3CCN4CCN5CCN(CC3)CC(=O)[O][Lu]([O]C(=O)C4)[O]C(=O)C5)cc(c2)CSC[C@@H](C(=O)N[C@@H](CC(=O)O)C(=O)NCCCC(=O)N[C@@H](CCCNC(=N)N)C(=O)NCCCOCCOCCOCCCNC(=O)CCC(=O)NCCCOCCOCCOCCCNC(=O)CCC(=O)NCCCOCCOCCOCCCNC(=O)CCC(=O)N[C@@H](CCCCNC(=O)c2ccc(-c3c4ccc(=N)c(S(=O)(=O)O)c-4oc4c(S(=O)(=O)O)c(N)ccc34)c(C(=O)O)c2)C(N)=O)NC[C@H](Cc2ccccc2)NC(=O)[C@H](CCC(N)=O)NC(=O)C([C@@H](C)O)NC(=O)[C@@H]2CCCN2C(=O)[C@@H]2CCCC2C1=O (stereo partly drawn) [3BP-4373, Hex-[Cys(tMeBn(LuDOTA-AET))-Pro-Pro-Thr-Gln-Phe-Cys]-Asp-Gab-Arg-Ttds-Ttds-Ttds-Lys(AF488)-NH2] | – | – | 7.10 to 8.00 | > 8.00 |
| CCCC(NC(=O)CCC(=O)NCCCOCCOCCOCCCNC(=O)CN1CCN(CC(=O)O)CCN(CC(=O)O)CCN(CC(=O)O)CC1)C(=O)N[C@H]1CSCc2cccc(c2)CSC[C@@H](C(=O)N[C@@H](CC(=O)O)C(=O)NCCCOCCOCCOCCCNC(=O)CCC(=O)N[C@@H](CCCCNC(=O)CN2CCN(CC(=O)O)CCN(CC(=O)O)CCN(CC(=O)O)CC2)C(N)=O)NC(=O)[C@H](Cc2ccccc2)NC(=O)[C@H](CCC(N)=O)NC(=O)[C@H]([C@@H](C)O)NC(=O)[C@@H]2CCCN2C(=O)[C@@H]2CCCN2C1=O (stereo partly drawn) [3BP-4393, DOTA-Ttds-Nle-[Cys(3MeBn)-Pro-Pro-Thr-Gln-Phe-Cys]-Asp-Ttds-Lys(DOTA)-NH2] | – | – | > 8.00 | > 8.00 |

The next lines start with results.

| pIC50 ([1]; WI-38 fibroblasts) | pIC50 ([2]; recombinant human FAP) | SMILES | pIC50 [1] | pIC50 [2] |
| --- | --- | --- | --- | --- |
| 7.10 to 8.00 | 7.10 to 8.00 | CSCC[C@H](NC(C)=O)C(=O)N[C@H]1CSCc2cccc(c2)CSC[C@@H](C(=O)N[C@@H](C)C(=O)N[C@@H](Cc2c[nH]cn2)C(=O)N[C@@H](Cc2ccccc2)C(=O)N[C@@H](CCCNC(=N)N)C(=O)N[C@@H](CC(=O)O)C(N)=O)NC(=O)[C@H](Cc2ccccc2)NC(=O)[C@H](CCC(=O)O)NC(=O)[C@H]([C@@H](C)O)NC(=O)[C@@H]2CCCN2C(=O)[C@@H]2CCCN2C1=O [3BP-3194, Ac-Met-[Cys(3MeBn)-Pro-Pro-Thr-Glu-Phe-Cys]-Ala-His-Phe-Arg-Asp-NH2] (Ac-MCPPTEFCAHFRD-NH2; linker 2-8 via mXylylene) | – | – |
| 6.10 to 7.00 | 6.10 to 7.00 | CSCC[C@H](NC(C)=O)C(=O)N[C@H]1CSCc2cccc(c2)CSC[C@@H](C(=O)N[C@@H](CC(=O)O)C(=O)N[C@@H](Cc2c[nH]cn2)C(=O)N[C@@H](Cc2ccccc2)C(=O)N[C@@H](CCCNC(=N)N)C(=O)N[C@@H](CC(=O)O)C(N)=O)NC(=O)[C@H](Cc2ccccc2)NC(=O)[C@H](CCC(=O)O)NC(=O)[C@H]([C@@H](C)O)NC(=O)[C@@H]2CCCN2C(=O)[C@@H](C)NC1=O [3BP-3215, Ac-Met-[Cys(3MeBn)-ala-Pro-Thr-Glu-Phe-Cys]-Asp-His-Phe-Arg-Asp-NH2] (Ac-MC[dA]PTEFCDHFRD-NH2; linker 2-8 via mXylylene) | – | – |
| > 8.00 | > 8.00 | CCCCCC(=O)N[C@H]1CSCc2cccc(c2)CSC[C@@H](C(=O)N[C@@H](CC(=O)O)C(=O)N[C@@H](Cc2c[nH]cn2)C(=O)N[C@H](Cc2ccccc2)C(=O)N[C@@H](CCCNC(=N)N)C(=O)NCCCOCCOCCOCCCNC(=O)CCC(=O)N[C@@H](CCCCNC(=O)CN2CCN(CC(=O)O)CCN(CC(=O)O)CCN(CC(=O)O)CC2)C(N)=O)NC(=O)[C@H](Cc2ccccc2)NC(=O)[C@H](CCC(=O)O)NC(=O)[C@H]([C@@H](C)O)NC(=O)[C@@H]2CCCN2C(=O)[C@@H]2CCCN2C1=O [3BP-3276, Hex-[Cys(3MeBn)-Pro-Pro-Thr-Glu-Phe-Cys]-Asp-His-phe-Arg-Ttds-Lys(DOTA)-NH2] (Hexanoyl-CPPTEFCDH[dF]R-X3; linker 1-7 via mXylylene) | – | – |
